pIC50: −log10 of the molar value.
target: T1, Menin-MLL (Homo sapiens, UniProt O00255); assay: Inhibitory activity against Menin-MLL binding (fluorescence polarization); conditions: Menin-MLL IC50, fluorescence polarization; 150 nM His-Menin, 15 nM FITC-MLL; 25°C for 60 min
T1 construct: His-Menin (M1-L615 end); purchased BIORTUS BP9210
T1 sequence (O00255 1-615 isoform O00255-1): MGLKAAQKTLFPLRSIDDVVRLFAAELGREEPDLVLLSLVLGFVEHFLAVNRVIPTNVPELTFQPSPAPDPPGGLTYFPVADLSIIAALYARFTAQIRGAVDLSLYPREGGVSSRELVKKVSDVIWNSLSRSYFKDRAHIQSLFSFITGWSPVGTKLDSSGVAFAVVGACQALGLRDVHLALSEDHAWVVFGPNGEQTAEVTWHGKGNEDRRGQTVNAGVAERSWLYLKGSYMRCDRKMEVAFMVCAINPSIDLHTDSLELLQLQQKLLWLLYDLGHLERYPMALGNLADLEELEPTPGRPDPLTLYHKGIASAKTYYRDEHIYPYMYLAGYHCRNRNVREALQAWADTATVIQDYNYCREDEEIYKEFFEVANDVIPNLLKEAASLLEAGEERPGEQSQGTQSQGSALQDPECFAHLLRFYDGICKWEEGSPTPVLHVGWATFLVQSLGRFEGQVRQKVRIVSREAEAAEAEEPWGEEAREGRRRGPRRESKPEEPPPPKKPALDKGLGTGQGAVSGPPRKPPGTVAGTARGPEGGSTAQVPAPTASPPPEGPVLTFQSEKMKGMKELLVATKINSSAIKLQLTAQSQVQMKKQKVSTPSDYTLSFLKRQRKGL
How it was run: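 Fluorescence polarization competition: compound and 150 nM His-tagged menin (residues M1-L615) sit 15 min at 25 °C in pH 7.5 HEPES buffer with NaCl, DTT and BSA; 15 nM FITC-labelled MLL peptide then binds for 60 min. IC50 fitted sigmoidally from mP values, duplicate wells.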

| Structure (SMILES) | pIC50 |
| --- | --- |
| CCS(=O)(=O)N[C@H]1CC[C@H](CN2CC(c3cc(-c4ccc(F)cc4C(=O)N4CCOC[C@H]4C)c4cnn(C)c4c3)C2)CC1 [Example 159, N-[(1r,4r)-4-{[3-(4-{4-fluoro-2-[(3R)-3-methylmorpholin-4-carbonyl]phenyl}-1-methyl-1H-indazol-6-yl)azacyclobutan-1-yl]methyl}cyclohexyl]ethan-1-sulfonamide] | 7.16 |
| CCN(C(=O)c1cc(F)ccc1-c1cc(C2CCN(C[C@H]3CC[C@H](NS(=O)(=O)CC)CC3)C2)cn2cncc12)C(C)C (mixture of isomers) [Example 22, N-ethyl-5-fluoro-N-isopropyl-2-[6-(1-{[(1r,4r)-4-ethanesulfonamidocyclohexyl]methyl}pyrrolidin-3-yl)imidazo[1,5-a]pyridin-8-yl]benzamide] | 7.60 |
| CCN(C(=O)c1cc(F)ccc1-c1cc(C2CN(C(=O)[C@H]3NC[C@@H]4CCC[C@@H]43)C2)cn2c(C)nc(F)c12)C(C)C [Example 274] | 7.71 |
| COCCN(C(=O)c1cc(F)ccc1-c1cc(C2CN(C(CCCN3C[C@H]4C[C@@H]3CO4)C(C)C)C2)cn2c(C)ncc12)C(C)C (stereo partly shown) [Example 467] | 8.30 |

same assay, conditions: fluorescence polarization; 150 nM His-Menin, 15 nM FITC-MLL; 25°C for 60 min; read-out: Menin-MLL IC50

| pIC50 | Structure (SMILES) |
| --- | --- |
| 5.94 | Cc1nc(F)c2c(-c3ccc(F)cc3C(=O)N3CCOC[C@H]3C)cc(C3CN([C@@H](CN4CCN(C(=O)OC(C)(C)C)CC4)C(C)C)C3)cn12 [Example 366-1, 4-[(2R)-2-[3-(1-fluoro-8-{4-fluoro-2-[(3R)-3-methylmorpholin-4-carbonyl]phenyl}-3-methylimidazo[1,5-a]pyridin-6-yl)azacyclobutan-1-yl]-3-methylbutyl]piperazin-1-tert-butyl carboxylate] |
| 7.38 | CCN(C(=O)c1cc(F)ccc1-c1cc(C2CN([C@@H](CCCN3CCN(C(C)=O)CC3)C(C)C)C2)cn2c(C)ncc12)C(C)C [Example 311-1, 2-(6-{1-[(3S)-6-(4-acetylpiperazin-1-yl)-2-methylhexan-3-yl]azacyclobutan-3-yl}-3-methylimidazo[1,5-a]pyridin-8-yl)-N-ethyl-5-fluoro-N-(isopropyl)benzamide] |
| 6.97 | CCN(C(=O)c1cc(F)ccc1-c1cc(N2CCC(NCC3(F)CCC(NS(=O)(=O)CC)CC3)CC2)cn2c(C)ncc12)C(C)C (stereo not shown) [Compound 57, 2-[6-(4-{[(4-ethanesulfonamido-1-fluorocyclohexyl)methyl]amino}piperidin-1-yl)-3-methylimidazo[1,5-a]pyridin-8-yl]-N-ethyl-5-fluoro-N-(isopropyl)benzamide] |
| 6.79 | Cc1ncc2c(-c3ccc(F)cc3C(=O)N(CC(F)F)C(C)C)cc(N3CCN(C(=O)[C@@H]4CCC(c5cccc(F)c5)N4)CC3)cn12 (stereo partly drawn) [Example 140, N-(2,2-difluoroethyl)-5-fluoro-2-(6-{4-[(2S)-5-(3-fluorophenyl)pyrrolidin-2-carbonyl]piperazin-1-yl}-3-methylimidazo[1,5-a]pyridin-8-yl)-N-(isopropyl)benzamide] |
| 6.82 | CCN(C(=O)c1cc(F)ccc1-c1cc(C2CN([C@@H](CN3CCN(CCO)CC3)C(C)C)C2)cc2c1cnn2C)C(C)C [Example 416-1, N-ethyl-5-fluoro-2-(6-{1-[(2R)-1-[4-(2-hydroxyethyl)piperazin-1-yl]-3-methylbutan-2-yl]azacyclobutan-3-yl}-1-methyl-1H-indazol-4-yl)-N-(isopropyl)benzamide] |
| 7.49 | CCN(C(=O)c1cc(F)ccc1-c1cc(C2CN([C@@H](CCCN3CCN(C)CC3)C(C)C)C2)cn2c(C)nc(F)c12)C(C)C [Example 312-1] |
| 7.41 | Cc1nc(F)c2c(-c3ccc(F)cc3C(=O)N3CCOC[C@H]3C)cc(C3CN(C[C@H]4CC[C@H](n5cncn5)CC4)C3)cn12 [Example 253] |
| 8.14 | CCN(C(=O)c1cc(F)ccc1-c1cc(C2CN([C@H](CN3C[C@@H](O)[C@H](O)C3)C(C)C)C2)cn2c(C)ncc12)C(C)C [Example 446-1, 2-(6-{1-[(2S)-1-[(3R,4R)-3,4-dihydroxylpyrrolidin-1-yl]-3-methylbutan-2-yl]azacyclobutan-3-yl}-3-methylimidazo[1,5-a]pyridin-8-yl)-N-ethyl-5-fluoro-N-(isopropyl)benzamide] |
| 6.96 | Cc1nc(F)c2c(-c3ccc(F)cc3C(=O)N3CCOC[C@H]3C)cc(C3CN(CC4CCN(S(=O)(=O)C5CC5)CC4)C3)cn12 [Example 252] |
| 8.30 | CCN(C(=O)c1cc(F)ccc1-c1cc(C2CN([C@H](CCCN3CCN(CCC#N)C(=O)C3)C(C)C)C2)cn2c(C)ncc12)C(C)C [Example 493] |
| 8.57 | CCS(=O)(=O)NC1CCC(CN2CC(c3cc(-c4ccc(F)cc4C(=O)N(CC(F)F)C(C)C)c4cnccn34)C2)CC1 (stereo not shown) [Example 143, N-(2,2-difluoroethyl)-2-(6-{1-[(4-ethanesulfonamidocyclohexyl)methyl]azacyclobutan-3-yl}pyrrolo[1,2-a]pyrazin-8-yl)-5-fluoro-N-(isopropyl)benzamide] |
| 8.03 | CC(=O)N1C[C@H]2C[C@@H]1CN2CCC[C@H](C(C)C)N1CC(c2cc(-c3ccc(F)cc3C(=O)N3CCOC[C@H]3C)c3c(F)nc(C)n3c2)C1 [Example 332, 1-[(1R,4R)-5-[(4R)-4-[3-(1-fluoro-8-{4-fluoro-2-[(3R)-3-methylmorpholin-4-carbonyl]phenyl}-3-methylimidazo[1,5-a]pyridin-6-yl)azacyclobutan-1-yl]-5-methylhexyl]-2,5-diazabicyclo[2.2.1]heptan-2-yl]ethan-1-one] |
| 7.89 | CC(=O)N1CCN(CCC[C@H](C(C)C)N2CC(c3cc(-c4ccc(F)cc4C(=O)N4CCOC[C@H]4C)c4c(F)nc(C)n4c3)C2)CC1(C)C [Example 339] |
| 7.66 | COC[C@@H]1CN(CCC[C@@H](C(C)C)N2CC(c3cc(-c4ccc(F)cc4C(=O)N(C(C)C)C(C)C)c4cnc(C)n4c3)C2)CCN1 [Example 505-1] |
| 9.00 | CCNC(=O)N1CCC([C@H](C)N2CC(c3cc(-c4ccc(F)cc4C(=O)N(CC)C(C)C)c4c(F)nc(C)n4c3)C2)CC1 [Example 282-2, N-ethyl-4-[(1S)-1-[3-(8-{2-[ethyl(isopropyl)aminoformyl]-4-fluorophenyl}-1-fluoro-3-methylimidazo[1,5-a]pyridin-6-yl)azacyclobutan-1-yl]ethyl]piperidin-1-formamide] |
| 7.72 | CCN(C(=O)c1cc(F)ccc1-c1cc(N2CCN(C(=O)[C@@H]3CCCN3)CC2)cn2c(C)nc(Cl)c12)C(C)C [Example 114] |
| 8.41 | Cc1nc(F)c2c(-c3ccc(F)cc3C(=O)N3CCOC[C@H]3C)cc(C3CN([C@@H](CN4CCNCC4)C(C)C)C3)cn12 [Example 367-1, (3R)-4-[5-fluoro-2-(1-fluoro-3-methyl-6-{1-[(2R)-3-methyl-1-(piperazin-1-yl)butan-2-yl]azacyclobutan-3-yl}imidazo[1,5-a]pyridin-8-yl)benzoyl]-3-methylmorpholine] |
| 7.48 | CCN(C(=O)c1cc(F)ccc1-c1cc(C2CN([C@H](CCCN3CCN(C(C)=O)CC3)C(C)C)C2)cc2c1cnn2C)C(C)C [Example 407] |
| 8.14 | CC(=O)N1CC2CCC(C1)N2CCC[C@H](C(C)C)N1CC(c2cc(-c3ccc(F)cc3C(=O)N3CCOC[C@H]3C)c3cnc(C)n3c2)C1 [Example 348, 1-{8-[(4R)-4-[3-(8-{4-fluoro-2-[(3R)-3-methylmorpholin-4-carbonyl]phenyl}-3-methylimidazo[1,5-a]pyridin-6-yl)azacyclobutan-1-yl]-5-methylhexyl]-3,8-diazabicyclo[3.2.1]oct-3-yl}ethan-1-one] |
| 7.09 | CCN(C(=O)c1cc(F)ccc1-c1cc(N2CCN(C(=O)[C@@H]3CCCNC3)CC2)cn2c(C)ncc12)C(C)C [Example 124] |
| 8.15 | Cc1nc(F)c2c(-c3ccc(F)cc3C(=O)N3CCOC[C@H]3C)cc(C3CN(C[C@H]4CC[C@H](c5cnn(C)c5)CC4)C3)cn12 [Example 276-2, (3R)-4-{5-fluoro-2-[1-fluoro-3-methyl-6-(1-{[(1r,4r)-4-(1-methyl-1H-pyrazol-4-yl)cyclohexyl]methyl}azacyclobutan-3-yl)imidazo[1,5-a]pyridin-8yl]benzoyl}-3-methylmorpholine] |
| 7.74 | CC(=O)N1C2CC1CN(CCC[C@H](C(C)C)N1CC(c3cc(-c4ccc(F)cc4C(=O)N4CCOC[C@H]4C)c4c(F)nc(C)n4c3)C1)C2 [Example 345] |
| 7.36 | CCN(C(=O)c1cc(F)ccc1-c1cc(C2CN([C@@H](CN3C[C@@H](O)[C@H](O)C3)C(C)C)C2)cn2c(C)ncc12)C(C)C [Example 446-2, 2-(6-{1-[(2R)-1-[(3R,4R)-3,4-dihydroxylpyrrolidin-1-yl]-3-methylbutan-2-yl]azacyclobutan-3-yl}-3-methylimidazo[1,5-a]pyridin-8-yl)-N-ethyl-5-fluoro-N-(isopropyl)benzamide] |
| 6.66 | CC(=O)N1CCC(CN2CC(c3cc(-c4ccc(F)cc4C(=O)N4CCOC[C@H]4C)c4cnn(C)c4c3)C2)CC1 [Example 177] |
